Results: PMC3982047 (Nature, 2014)
Peptide text beside a SMILES is read from it.

Assays:
PepTSo = PepTSo (Shewanella oneidensis, UniProt Q8EKT7); experiment: microscale thermophoresis; format: binding
AtNRT1.1 [1] = biological target: T1, AtNRT1.1 (Arabidopsis thaliana, UniProt Q05085); experiment: microscale thermophoresis; format: binding
T1 sequence (Q05085 1-590): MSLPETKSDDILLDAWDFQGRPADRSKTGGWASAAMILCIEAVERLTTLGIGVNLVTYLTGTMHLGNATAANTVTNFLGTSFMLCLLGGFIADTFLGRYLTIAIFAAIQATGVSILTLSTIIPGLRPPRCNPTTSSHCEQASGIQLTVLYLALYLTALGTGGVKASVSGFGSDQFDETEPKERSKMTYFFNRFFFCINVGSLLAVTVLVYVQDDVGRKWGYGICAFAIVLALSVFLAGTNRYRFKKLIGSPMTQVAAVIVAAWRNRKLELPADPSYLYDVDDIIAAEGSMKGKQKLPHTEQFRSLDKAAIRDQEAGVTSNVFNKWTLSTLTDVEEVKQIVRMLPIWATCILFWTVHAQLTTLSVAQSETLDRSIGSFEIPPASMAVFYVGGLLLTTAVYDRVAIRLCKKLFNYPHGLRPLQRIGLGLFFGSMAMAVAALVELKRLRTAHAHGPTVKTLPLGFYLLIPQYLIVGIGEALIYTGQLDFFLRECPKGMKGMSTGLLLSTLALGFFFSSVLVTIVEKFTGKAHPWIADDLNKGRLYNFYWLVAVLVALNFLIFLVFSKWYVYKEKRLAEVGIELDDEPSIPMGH

AtNRT1.1 [2] = biological target: AtNRT1.1 (Arabidopsis thaliana, UniProt Q05085, T101D); experiment: microscale thermophoresis; format: binding
AtNRT1.1 [3] = biological target: AtNRT1.1 (Arabidopsis thaliana, UniProt Q05085); experiment: biochemical
[4] = biological target: PepTSo, peptide transporter from Shewanella oniendensis (Shewanella oniendensis (so in the source)); experiment: MST

Chain of AtNRT1.1 (Arabidopsis thaliana, UniProt Q05085, T101D) (Q05085 whole entry T101D): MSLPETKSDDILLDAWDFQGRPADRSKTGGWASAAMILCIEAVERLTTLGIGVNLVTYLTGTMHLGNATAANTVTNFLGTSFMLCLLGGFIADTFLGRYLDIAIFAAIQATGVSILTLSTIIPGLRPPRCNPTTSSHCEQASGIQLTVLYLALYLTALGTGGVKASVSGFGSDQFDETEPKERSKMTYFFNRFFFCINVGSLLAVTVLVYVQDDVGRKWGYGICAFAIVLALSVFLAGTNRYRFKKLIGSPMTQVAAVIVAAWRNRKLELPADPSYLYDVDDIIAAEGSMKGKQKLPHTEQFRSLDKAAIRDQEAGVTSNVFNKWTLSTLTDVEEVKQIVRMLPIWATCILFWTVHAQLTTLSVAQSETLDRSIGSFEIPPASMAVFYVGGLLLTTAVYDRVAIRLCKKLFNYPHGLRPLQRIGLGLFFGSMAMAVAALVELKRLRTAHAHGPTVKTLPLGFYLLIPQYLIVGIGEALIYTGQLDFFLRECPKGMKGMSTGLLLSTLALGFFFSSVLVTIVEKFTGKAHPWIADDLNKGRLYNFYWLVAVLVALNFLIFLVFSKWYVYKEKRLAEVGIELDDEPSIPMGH

Question: For `C[C@H](N)C(=O)N[C@@H](C)C(=O)O` [Ala-Ala] (H-Ala-Ala-OH), which Kd (PepTSo) is on record?
Answer: ~35 µM

Question: Which Kd (AtNRT1.1 [1]) does the source give for `[O-][Cl+2]([O-])O` [chlorate] here?
Answer: ~5000 µM

Question: `O=[N+]([O-])O` [nitrate] was tested. Which Kd (AtNRT1.1 [2]) did it give?
Answer: 1000 ± 120 µM

Question: What about the Kd (AtNRT1.1 [3]) of the same compound?
Answer: 1000 ± 150 µM

Question: Which Kd [4] does the source give for di-peptide Ala-Ala here?
Answer: 35 µM
